Reference: patent publication US20100184675A1, “USE OF GLUCAGON (1-29) ALONE OR IN COMBINATION WITH NEUROPEPTIDE W30 AS A THERAPEUTIC AGENT” (priority 2007, published 2010)
Ends that are not written are not given here.

Test system: drug-resistant Mycobacterium tuberculosis
Test: Mycobacterium tuberculosis assay
Format: cell-based
Details: 10 micrograms per ml; seven days; strain resistant to PAS, streptomycin, INH; combination 0.95:1.05 mole and all other molar ratios from 1:100 to 100:1

Trp-Tyr-Lys-His-Val-Ala-Ser-Pro-Arg-Tyr-His-Thr-Val-Gly-Arg-Ala-Ala-Gly-Leu-Leu-Met-Gly-Leu-Arg-Arg-Ser-Pro-Tyr-Leu-Trp-OH (WYKHVASPRYHTVGRAAGLLMGLRRSPYLW-OH) [Peptide 2, Neuropeptide W-30, commercially available known peptide]
inhibition of the growth of Mycobacterium tuberculosis: 100%
